This note sets out measurements from US20150133456A1, “FLUOROERGOLINE DERIVATIVES AND USES THEREOF” (MAP PHARMACEUTICALS, INC., priority 2012, published 2015).

Entries after “also recorded” stand apart in the source; their conditions may differ.

The IC50 is the concentration at which inhibition is half-maximal. For orientation: EC50 means the concentration giving half of the maximal effect. One may read the Emax as the size of the effect at its maximum, as opposed to the concentration needed.

The target of test [1] is T1, human 5-HT2B receptor (Homo sapiens, UniProt P41595).
T1 construct: host or cells: CHO-K1 coexpressing mitochondrial apoaequorin
T1 sequence (P41595 whole entry): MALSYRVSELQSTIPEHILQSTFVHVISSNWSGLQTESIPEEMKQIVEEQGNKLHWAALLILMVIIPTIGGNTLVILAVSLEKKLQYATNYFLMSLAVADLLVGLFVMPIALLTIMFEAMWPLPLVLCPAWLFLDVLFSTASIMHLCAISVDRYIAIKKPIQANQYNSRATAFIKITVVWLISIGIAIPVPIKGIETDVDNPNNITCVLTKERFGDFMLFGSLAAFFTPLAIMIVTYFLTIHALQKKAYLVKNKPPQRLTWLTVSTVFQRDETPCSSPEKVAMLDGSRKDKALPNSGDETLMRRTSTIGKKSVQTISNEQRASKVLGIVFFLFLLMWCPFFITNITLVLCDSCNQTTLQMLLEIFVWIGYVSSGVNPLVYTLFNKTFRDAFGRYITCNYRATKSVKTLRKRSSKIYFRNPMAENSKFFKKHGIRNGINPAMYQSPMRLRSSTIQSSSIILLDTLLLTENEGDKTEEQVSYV
Nature of the test: Aequorin assay, agonist activity at 5-HT2B. The class given is cell-based. Conditions: 0.01 nM to 20,000 nM; versus Emax of α-methyl-5-HT. On the procedure:
Percentage activation values were determined for 2-CF3 dihydroergotamine at the 5-HT2B receptor.

The target of a further test is T2, Calcitonin (CGRP) (Homo sapiens, UniProt O60894+Q16602).
T2 construct: expressed in transfected cells; host or cells: CHO-AEQ (CHO-K1 with mitochondrial apoaequorin)
T2 sequence (Q16602 23-461): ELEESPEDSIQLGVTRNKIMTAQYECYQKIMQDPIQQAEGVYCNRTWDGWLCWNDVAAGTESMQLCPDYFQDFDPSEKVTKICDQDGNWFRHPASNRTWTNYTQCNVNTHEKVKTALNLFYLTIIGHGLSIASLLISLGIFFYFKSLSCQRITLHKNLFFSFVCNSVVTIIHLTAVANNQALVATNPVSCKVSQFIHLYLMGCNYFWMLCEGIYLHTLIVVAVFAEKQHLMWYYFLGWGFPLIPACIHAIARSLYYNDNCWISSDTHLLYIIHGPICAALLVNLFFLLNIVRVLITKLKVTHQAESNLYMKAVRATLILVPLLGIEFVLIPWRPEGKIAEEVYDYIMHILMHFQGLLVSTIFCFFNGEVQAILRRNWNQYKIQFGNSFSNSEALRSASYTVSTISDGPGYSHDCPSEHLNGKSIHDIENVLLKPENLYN
T2 sequence (O60894 27-148 partner): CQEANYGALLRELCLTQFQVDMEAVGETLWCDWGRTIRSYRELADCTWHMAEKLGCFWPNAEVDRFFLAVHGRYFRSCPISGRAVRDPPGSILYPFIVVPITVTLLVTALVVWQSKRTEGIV
Nature of the test: CGRP receptor Aequorin assay. The class given is cell-based. As for the experimental part: CHO-K1 cells coexpressing mitochondrial apoaequorin and the recombinant human receptor of interest were grown to mid-log phase in culture media without antibiotics and then detached with PBS-EDTA, centrifuged and resuspended in assay buffer (DMEM/HAM's F12 with HEPES, without phenol red+0.1% BSA, protease free) at a concentration of 1×10^6 cell/mL. Cells were incubated at room temperature for at least 4 hours with coelenterazine h. Reference agonist/antagonist was tested to evaluate the performance of the assay and to determine EC50/IC50.
50 μL of the cell suspension was mixed with 50 μL of test or reference agonist in a 96-well plate. […] For antagonist testing, 100 μL of the reference agonist at its EC80 was injected on the mix of cells and test compound, following an incubation of 15 minutes after the first injection. The resulting emission of light was r recorded using Hamamatsu Functional Drug Screening System 6000 (FDSS 6000) luminometer. To standardize the emission of recorded light (and determine of the “100% signal”) across plates and across different experiments, some wells contained 100 μM digitonin or a saturating concentration of ATP (20 μM).

Test [2] concerns NMDA (NR1/NR2A/NR2B/NR2C/NR2D). Nature of the test: NMDA receptor Fluo-8 calcium FLIPR assay, agonist and antagonist. Type of test: cell-based, human. Conditions: NMDA channels in HEK293. As for the experimental part:
The following channels were evaluated: Cloned NMDA receptor (NR1/NR2A) channel (encoded by the GRIN1 and GRIN2A genes, coexpressed in HEK293 cells; Cloned NMDA receptor (NR1/NR2B) channel (encoded by the GRIN1 and GRIN2B genes, coexpressed in HEK293 cells; Cloned NMDA receptor (NR1/NR2C) channel (encoded by the GRIN1 and GRIN2C genes, coexpressed in HEK293 cells; and Cloned NMDA receptor (NR1/NR2D) channel (encoded by the GRIN1 and GRIN2D genes, transiently coexpressed in HEK293 cells.
For the agonist assessment, the effect of 2-CF3-DHE was evaluated in the absence of the positive control agonist. The signal, elicited in the presence of the agonist (100 μM Glutamic acid+20 μM Glycine), was set to 100% activation and the signal in the presence of the vehicle control (Mg^2+-free HB-PS) was set to 0% activation.
For the antagonist assessment, NR1/NR2A and NR1/NR2B was activated with the positive control agonist (100 μM Glutamic acid+20 μM Glycine). The ability of 2-CF3-DHE to inhibit the signal was examined after agonist stimulation and compared to the positive control antagonist (MK-801).

For test [3], the target named is T1, human 5-HT2B receptor. Nature of the test: Aequorin assay, antagonist activity at 5-HT2B. Type of test: cell-based. On the procedure: Percentage inhibition values were determined for 2-CF3 dihydroergotamine on the 5-HT2B receptor.
For another test, the system named is Opioid (OP1/OP2/OP3). Nature of the test: Opioid receptor GTPγS assays. Type of test: biochemical, human. On the procedure:
Reagents used were the following: Assay buffer (20 mM HEPES, pH 7.4; 100 mM NaCl; 10 μg/mL saponin; 30 mM MgCl2); Membranes (recombinant human receptor membrane extracts were thawed on ice and diluted in assay buffer to give 1000 μg/mL ([…]) and kept on ice); GDP (diluted in assay buffer to give 30 μM solution (3 μM final concentration); beads (PVT-WGA (Amersham, RPNQ001), diluted in assay buffer at 25 mg/mL (0.25 mg/10 μL)); GTPγ^35S (Perkin Elmer, NEG030X), diluted in assay buffer to give 0.1 nM (final concentration); and ligand (agonist/antagonist diluted in assay buffer).
Membranes were mixed with GDP (1:1) and incubated for at least 15 minutes on ice. In parallel GTPγ^35S was mixed with the beads (1:1) just before starting the reaction. The following reagents were successively added in the wells of an Optiplate (Perkin Elmer): 50 μL test compound or reference ligand, 20 μL of the membranes:GDP mix (then 15 minute incubation for antagonist test), 10 μL of reference agonist at historical EC80 (for antagonist test) or 10 μL of assay buffer (for agonist test) and 20 μL of the GTPγ^35S:beads mix. […] The plates were then centrifuged for 10 minutes at 2000 rpm and incubated at room temperature for 1 hour and counted for 1 min/well with a Perkin Elmer TopCount reader.

In a further test the target is T3, α1D receptor (Homo sapiens, UniProt P25100).
T3 construct: expressed in transfected cells
T3 sequence (P25100 whole entry): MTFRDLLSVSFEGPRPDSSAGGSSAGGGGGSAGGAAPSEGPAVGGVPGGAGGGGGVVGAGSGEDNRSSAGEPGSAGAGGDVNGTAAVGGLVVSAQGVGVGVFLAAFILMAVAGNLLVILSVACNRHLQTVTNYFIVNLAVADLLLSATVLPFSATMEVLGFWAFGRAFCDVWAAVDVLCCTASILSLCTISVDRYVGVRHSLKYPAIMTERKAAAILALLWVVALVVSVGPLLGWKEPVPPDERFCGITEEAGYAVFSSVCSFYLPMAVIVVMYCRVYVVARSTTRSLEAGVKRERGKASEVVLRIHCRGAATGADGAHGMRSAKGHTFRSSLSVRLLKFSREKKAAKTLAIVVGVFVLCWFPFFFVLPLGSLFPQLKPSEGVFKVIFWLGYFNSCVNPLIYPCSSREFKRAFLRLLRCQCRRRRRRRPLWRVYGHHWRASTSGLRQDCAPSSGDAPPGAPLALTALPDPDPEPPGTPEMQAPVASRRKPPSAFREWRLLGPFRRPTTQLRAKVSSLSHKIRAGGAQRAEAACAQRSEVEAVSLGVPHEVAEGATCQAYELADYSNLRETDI
Nature of the test: Competitive antagonist activity, adrenergic α1D. Type of test: cell-based. Conditions: read-out: IC50, α1D antagonism.

Another test deals with human 5-HT1D receptor (Homo sapiens, UniProt P28221). Nature of the test: GTPγS agonist assay, 5-HT1D. Type of test: biochemical.
human 5-HT1D receptor, sequence (P28221 whole entry): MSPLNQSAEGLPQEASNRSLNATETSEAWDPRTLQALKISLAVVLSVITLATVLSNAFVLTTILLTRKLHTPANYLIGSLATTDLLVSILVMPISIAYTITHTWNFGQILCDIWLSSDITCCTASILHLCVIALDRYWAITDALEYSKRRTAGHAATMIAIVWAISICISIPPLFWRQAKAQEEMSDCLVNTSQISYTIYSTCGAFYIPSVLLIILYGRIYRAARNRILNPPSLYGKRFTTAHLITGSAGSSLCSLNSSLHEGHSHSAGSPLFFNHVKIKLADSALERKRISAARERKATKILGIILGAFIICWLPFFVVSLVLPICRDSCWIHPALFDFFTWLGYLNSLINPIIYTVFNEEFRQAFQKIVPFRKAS
The target of a further test is T4, Adenosine A2a (Homo sapiens, UniProt P29274).
T4 construct: expressed in transfected cells; host or cells: HEK293
T4 sequence (P29274 whole entry): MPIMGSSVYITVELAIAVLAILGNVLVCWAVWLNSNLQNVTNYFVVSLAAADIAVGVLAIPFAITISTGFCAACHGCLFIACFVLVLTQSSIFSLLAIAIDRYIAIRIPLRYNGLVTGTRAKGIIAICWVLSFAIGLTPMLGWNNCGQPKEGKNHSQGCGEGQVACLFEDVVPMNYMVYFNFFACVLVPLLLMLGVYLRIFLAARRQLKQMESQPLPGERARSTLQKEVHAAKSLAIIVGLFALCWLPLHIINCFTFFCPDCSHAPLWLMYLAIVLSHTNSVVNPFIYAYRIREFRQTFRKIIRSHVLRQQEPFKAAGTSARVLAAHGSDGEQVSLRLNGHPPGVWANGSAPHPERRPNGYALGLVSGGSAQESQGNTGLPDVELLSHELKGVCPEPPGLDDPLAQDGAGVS
Nature of the test: Adenosine A2a cAMP HTRF assay. Conditions: HEK293, cAMP. Type of test: cell-based. As for the experimental part: Cells expressing the human recombinant receptor of interest were grown in media without antibiotic and detached by gentle flushing with PBS-EDTA (5 mM EDTA), recovered by centrifugation and resuspended in assay buffer (KRH: 5 mM KCl, 1.25 mM MgSO4, 124 mM NaCl, 25 mM HEPES, 13.3 mM glucose, 1.25 mM KH2PO4, 1.45 mM CaCl2, 0.5 g/L BSA). Dose response curves were performed in parallel with the reference compounds. For agonist tests (96-well plates), 12 μL of cells was mixed with 12 μL of the test compound at increasing concentrations and then incubated for 30 minutes at room temperature. Lysis buffer was added and after a 1 hour incubation, cAMP concentrations was determined according to the manufacturer specification with the HTRF kit. For antagonist tests (96-well plates), 12 μL of cells was mixed with 6 μL of the test compound at increasing concentrations and then incubated for 10 minutes. 6 μL of the reference agonist was added at a final concentration corresponding to the historical EC80. The plates were then incubated for 30 minutes at room temperature. Lysis buffer was added and after a 1 hour incubation, cAMP concentrations were determined according to the manufacturer specification, with the HTRF kit.
In general terms: TR-FRET usually uses a lanthanide donor and a delayed reading to cut background.

Protocol for human 5-HT1D receptor: The mixture was shaken for 2 minutes prior to a 60 min incubation. It was then centrifuged for 10 minutes and counted for 1 minute with a Perkin Elmer TopCount reader. The resulting emission of light was recorded using a luminometer. Agonist percentage activation determinations were obtained by comparing with the Emax of the reference agonist α-methyl-5-HT.

With `CN1C[C@H](C(=O)N[C@]2(C)O[C@@]3(O)[C@@H]4CCCN4C(=O)[C@H](Cc4ccccc4)N3C2=O)CC2c3cccc4[nH]c(C(F)(F)F)c(c34)CC21` (stereo partly shown) [2-CF3-dihydroergotamine], on human 5-HT2B receptor [1], the “agonist activity at the 5-HT2B receptor” value is “no agonist activity; also recorded: little agonist activity”. Also, the “Activity (Agonism: EC50; Antagonism: IC50)” value (at Calcitonin (CGRP); in test [2]; in the test with Opioid (OP1/OP2/OP3)) was “Inactive” in each case. The “antagonism of the 5-HT2B receptor” value on human 5-HT2B receptor [3] (FIG. 2) is “potent antagonism”. Moreover, the IC50 at human 5-HT2B receptor [3] (reference agonist at its EC80, read-out: IC50, 5-HT2B antagonism) amounted to 204 nM; at α1D receptor, 40.2 nM. In addition, the EC50 on human 5-HT1D receptor amounted to 13.6 nM; at Adenosine A2a (read-out: EC50, Adenosine A2a agonism) it was 5.27 nM. Also, the Emax on Adenosine A2a turned out to be 25%.
